The term Ki denotes a dissociation constant, usually derived from enzyme kinetics or from competition with a known ligand. High values mean weaker binding, low ones tighter binding. The EC50 is the concentration that produces a half-maximal response.

Where two headings read alike, the source gives them in different places.

In assay [1] the target is HCV NS3 protease domain genotype 1b (Hepatitis C virus genotype 1b (isolate Con1), UniProt Q9WMX2, E1202G). Put plainly: Ki determination, NS3 protease genotype 1b (fluorogenic depsipeptide substrate). The assay is classed as biochemical. Particulars: 50 pM enzyme, NS4A peptide. Here is the method: Purified NS3 protease domain (amino acids 1-181) of the genotype 1b and 3a virus were generated as above.
Sequence of HCV NS3 protease domain genotype 1b (Q9WMX2 1027-1208 E1202G): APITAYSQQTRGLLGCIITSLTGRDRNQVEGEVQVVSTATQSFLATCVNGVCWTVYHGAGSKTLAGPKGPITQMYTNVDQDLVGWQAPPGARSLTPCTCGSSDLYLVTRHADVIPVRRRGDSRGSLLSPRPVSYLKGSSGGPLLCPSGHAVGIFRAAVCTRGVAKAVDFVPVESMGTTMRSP
Reactions were run at room temperature in buffer consisting of 50 mM HEPES, 40% glycerol, 0.05% Triton X-100, 10 mM DTT, and 10% DMSO. The final assay solutions contained 50 pM NS3 genotype 1 b protease or 200 pM genotype 3a protease, 20 μM NS4A peptide, and 4 μM substrate (genotype 1b) or 2 μM substrate (genotype 3a). Inhibitor concentrations varied from 100 nM to 5 pM in 3-fold dilutions, and no-inhibitor controls were included.
Compound dilutions were made in DMSO at 20× final concentration. Reaction mixtures were prepared in 96-well assay plates. A solution of enzyme and NS4A peptide in assay buffer (25 μL volume with both reagents at 4× final concentration) was mixed with 45 μL assay buffer and 5 μL of either inhibitor or DMSO, and pre-incubated at room temperature for 1 hour. The reaction was started by addition of 25 μL substrate solution at 4× final concentration. Plates were mixed vigorously for 5-10 seconds and reactions were allowed to proceed for 90 minutes, fluorescence was measured every 30 s between 90 and 120 minutes reaction time using a Tecan InfiniTe M1000 or PerkinElmer Envision multimode plate reader with an excitation wavelength of 340 nm and an emission wavelength of 490 nm.
To determine the Ki, rates were plotted as a function of inhibitor concentration, and the data were fit with equation 1 (Morrison, J. F., Biochimica et Biophysica Acta 1969, 185, 269-286) to calculate Ki^app using GraphPad Prism 5. […] Ki was calculated from Ki^app/(1+[[S]/Km]).

Assay [2] has as its target HCV NS3 protease domain genotype 3a (Hepatitis C virus genotype 3a, UniProt Q81258). The experiment in a line: Ki determination, NS3 protease genotype 3a (fluorogenic depsipeptide substrate). Particulars: 200 pM enzyme, NS4A peptide. The assay is classed as biochemical. In outline: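 The NS3 protease domain (aa 1-181) with 20 μM NS4A peptide was used at 50 pM with 4 μM substrate (1b) or at 200 pM with 2 μM substrate (3a). Inhibitors (100 nM-5 pM) were pre-incubated 1 h at room temperature in HEPES/glycerol/DTT buffer with 10% DMSO. Steady-state rates (90-120 min) gave Ki via the Morrison equation, corrected for active enzyme and [S]/Km.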

The test system of assay [3] is genotype 1a (H77) stable HCV replicon in Huh-7-derived cells. Put plainly: Stable subgenomic HCV replicon EC50, genotype 1a (Renilla luciferase). The conditions noted are these: stable replicon genotype 1a, 72 h, read-out: EC50 1A RLUC. It is filed as cell-based, hepatitis C virus. In outline:
(§1)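 Compounds, three-fold diluted, were applied to Huh-7-derived cells harbouring luciferase replicons (genotype 1a H77, 1b Con1, 2a JFH-1, 4a ED43, with strain-specific adaptive mutations). Seventy-two hours later, intracellular replication was gauged by Renilla luciferase activity and EC50 derived by regression.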
(Replicon systems follow genome replication, usually without infectious particles.)

Assay [4] deals with genotype 1b (Con1) stable HCV replicon in Huh-7-derived cells. The experiment in a line: Stable subgenomic HCV replicon EC50, genotype 1b (Renilla luciferase). The assay is classed as cell-based, hepatitis C virus. Particulars: stable replicon genotype 1b, 72 h, read-out: EC50 1B RLUC. A digest of the protocol: as §1
The subject of assay [5] is genotype 2a (JFH-1) stable HCV replicon in Huh-7-derived cells. The experiment in a line: Stable subgenomic HCV replicon EC50, genotype 2a (Renilla luciferase). The assay is classed as cell-based, hepatitis C virus. The conditions noted are these: stable replicon genotype 2a, 72 h, read-out: EC50 2A RLUC. In outline: as §1
Assay [6] deals with genotype 3a (S52) stable HCV replicon in Huh-7-derived cells. The experiment in a line: Stable subgenomic HCV replicon EC50, genotype 3a (Renilla luciferase). It is filed as cell-based, hepatitis C virus. Particulars: 72 h, read-out: EC50 3A RLUC.
Assay [7] concerns genotype 4a (ED43) stable HCV replicon in Huh-7-derived cells. Put plainly: Stable subgenomic HCV replicon EC50, genotype 4a (Renilla luciferase). It is filed as cell-based, hepatitis C virus. Particulars: 72 h, read-out: EC50 4A RLUC. In outline:
as §1

Assay [8] has as its system genotype 3a (S52) wild type transient HCV replicon in Huh-7-derived cells. Put plainly: Transient-transfected HCV replicon EC50, genotype 3a wild type. The assay is classed as cell-based, hepatitis C virus. The conditions noted are these: transient-transfected replicon genotype 3a wild type, 72 h, read-out: EC50 3A WT.
Assay [9] deals with genotype 1a (H77) wild type transient HCV replicon in Huh-7-derived cells. The experiment in a line: Transient-transfected HCV replicon EC50, genotype 1a wild type. It is filed as cell-based, hepatitis C virus. Particulars: transient-transfected replicon genotype 1a wild type, 72 h, read-out: EC50 1A WT.
Assay [10] relates to genotype 1a NS3/4a protease inhibitor resistant variant R155K transient HCV replicon in Huh-7-derived cells. The experiment in a line: Transient-transfected HCV replicon EC50, genotype 1a R155K. Particulars: 72 h. The assay is classed as cell-based, hepatitis C virus.
Assay [11] concerns genotype 1b (Con1) wild type transient HCV replicon in Huh-7-derived cells. The experiment in a line: Transient-transfected HCV replicon EC50, genotype 1b wild type. The conditions noted are these: transient-transfected replicon genotype 1b wild type, 72 h, read-out: EC50 1B WT. The assay is classed as cell-based, hepatitis C virus.
In assay [12] the test system is genotype 1b NS3/4a protease inhibitor resistant variant D168A transient HCV replicon in Huh-7-derived cells. Put plainly: Transient-transfected HCV replicon EC50, genotype 1b D168A. It is filed as cell-based, hepatitis C virus. Particulars: 72 h.
Setting [13] is: stable replicon genotype 3a, Renilla luciferase.
The mark [14] stands for this setting: stable replicon genotype 4a, Renilla luciferase.
Setting [15] is: transient-transfected replicon genotype 1a R155K resistant variant, read-out: EC50 1A R155K.
Where [16] appears, read: Hepatitis C virus, read-out: EC50 1A R155K, transient-transfected replicon genotype 1a R155K resistant variant, 72 h.
[17] abbreviates: Hepatitis C virus, read-out: EC50 1B D168A, transient-transfected replicon genotype 1b D168A resistant variant, 72 h.

Sequence of HCV NS3 protease domain genotype 3a (Q81258 whole entry, looked up, the tested form may be a part): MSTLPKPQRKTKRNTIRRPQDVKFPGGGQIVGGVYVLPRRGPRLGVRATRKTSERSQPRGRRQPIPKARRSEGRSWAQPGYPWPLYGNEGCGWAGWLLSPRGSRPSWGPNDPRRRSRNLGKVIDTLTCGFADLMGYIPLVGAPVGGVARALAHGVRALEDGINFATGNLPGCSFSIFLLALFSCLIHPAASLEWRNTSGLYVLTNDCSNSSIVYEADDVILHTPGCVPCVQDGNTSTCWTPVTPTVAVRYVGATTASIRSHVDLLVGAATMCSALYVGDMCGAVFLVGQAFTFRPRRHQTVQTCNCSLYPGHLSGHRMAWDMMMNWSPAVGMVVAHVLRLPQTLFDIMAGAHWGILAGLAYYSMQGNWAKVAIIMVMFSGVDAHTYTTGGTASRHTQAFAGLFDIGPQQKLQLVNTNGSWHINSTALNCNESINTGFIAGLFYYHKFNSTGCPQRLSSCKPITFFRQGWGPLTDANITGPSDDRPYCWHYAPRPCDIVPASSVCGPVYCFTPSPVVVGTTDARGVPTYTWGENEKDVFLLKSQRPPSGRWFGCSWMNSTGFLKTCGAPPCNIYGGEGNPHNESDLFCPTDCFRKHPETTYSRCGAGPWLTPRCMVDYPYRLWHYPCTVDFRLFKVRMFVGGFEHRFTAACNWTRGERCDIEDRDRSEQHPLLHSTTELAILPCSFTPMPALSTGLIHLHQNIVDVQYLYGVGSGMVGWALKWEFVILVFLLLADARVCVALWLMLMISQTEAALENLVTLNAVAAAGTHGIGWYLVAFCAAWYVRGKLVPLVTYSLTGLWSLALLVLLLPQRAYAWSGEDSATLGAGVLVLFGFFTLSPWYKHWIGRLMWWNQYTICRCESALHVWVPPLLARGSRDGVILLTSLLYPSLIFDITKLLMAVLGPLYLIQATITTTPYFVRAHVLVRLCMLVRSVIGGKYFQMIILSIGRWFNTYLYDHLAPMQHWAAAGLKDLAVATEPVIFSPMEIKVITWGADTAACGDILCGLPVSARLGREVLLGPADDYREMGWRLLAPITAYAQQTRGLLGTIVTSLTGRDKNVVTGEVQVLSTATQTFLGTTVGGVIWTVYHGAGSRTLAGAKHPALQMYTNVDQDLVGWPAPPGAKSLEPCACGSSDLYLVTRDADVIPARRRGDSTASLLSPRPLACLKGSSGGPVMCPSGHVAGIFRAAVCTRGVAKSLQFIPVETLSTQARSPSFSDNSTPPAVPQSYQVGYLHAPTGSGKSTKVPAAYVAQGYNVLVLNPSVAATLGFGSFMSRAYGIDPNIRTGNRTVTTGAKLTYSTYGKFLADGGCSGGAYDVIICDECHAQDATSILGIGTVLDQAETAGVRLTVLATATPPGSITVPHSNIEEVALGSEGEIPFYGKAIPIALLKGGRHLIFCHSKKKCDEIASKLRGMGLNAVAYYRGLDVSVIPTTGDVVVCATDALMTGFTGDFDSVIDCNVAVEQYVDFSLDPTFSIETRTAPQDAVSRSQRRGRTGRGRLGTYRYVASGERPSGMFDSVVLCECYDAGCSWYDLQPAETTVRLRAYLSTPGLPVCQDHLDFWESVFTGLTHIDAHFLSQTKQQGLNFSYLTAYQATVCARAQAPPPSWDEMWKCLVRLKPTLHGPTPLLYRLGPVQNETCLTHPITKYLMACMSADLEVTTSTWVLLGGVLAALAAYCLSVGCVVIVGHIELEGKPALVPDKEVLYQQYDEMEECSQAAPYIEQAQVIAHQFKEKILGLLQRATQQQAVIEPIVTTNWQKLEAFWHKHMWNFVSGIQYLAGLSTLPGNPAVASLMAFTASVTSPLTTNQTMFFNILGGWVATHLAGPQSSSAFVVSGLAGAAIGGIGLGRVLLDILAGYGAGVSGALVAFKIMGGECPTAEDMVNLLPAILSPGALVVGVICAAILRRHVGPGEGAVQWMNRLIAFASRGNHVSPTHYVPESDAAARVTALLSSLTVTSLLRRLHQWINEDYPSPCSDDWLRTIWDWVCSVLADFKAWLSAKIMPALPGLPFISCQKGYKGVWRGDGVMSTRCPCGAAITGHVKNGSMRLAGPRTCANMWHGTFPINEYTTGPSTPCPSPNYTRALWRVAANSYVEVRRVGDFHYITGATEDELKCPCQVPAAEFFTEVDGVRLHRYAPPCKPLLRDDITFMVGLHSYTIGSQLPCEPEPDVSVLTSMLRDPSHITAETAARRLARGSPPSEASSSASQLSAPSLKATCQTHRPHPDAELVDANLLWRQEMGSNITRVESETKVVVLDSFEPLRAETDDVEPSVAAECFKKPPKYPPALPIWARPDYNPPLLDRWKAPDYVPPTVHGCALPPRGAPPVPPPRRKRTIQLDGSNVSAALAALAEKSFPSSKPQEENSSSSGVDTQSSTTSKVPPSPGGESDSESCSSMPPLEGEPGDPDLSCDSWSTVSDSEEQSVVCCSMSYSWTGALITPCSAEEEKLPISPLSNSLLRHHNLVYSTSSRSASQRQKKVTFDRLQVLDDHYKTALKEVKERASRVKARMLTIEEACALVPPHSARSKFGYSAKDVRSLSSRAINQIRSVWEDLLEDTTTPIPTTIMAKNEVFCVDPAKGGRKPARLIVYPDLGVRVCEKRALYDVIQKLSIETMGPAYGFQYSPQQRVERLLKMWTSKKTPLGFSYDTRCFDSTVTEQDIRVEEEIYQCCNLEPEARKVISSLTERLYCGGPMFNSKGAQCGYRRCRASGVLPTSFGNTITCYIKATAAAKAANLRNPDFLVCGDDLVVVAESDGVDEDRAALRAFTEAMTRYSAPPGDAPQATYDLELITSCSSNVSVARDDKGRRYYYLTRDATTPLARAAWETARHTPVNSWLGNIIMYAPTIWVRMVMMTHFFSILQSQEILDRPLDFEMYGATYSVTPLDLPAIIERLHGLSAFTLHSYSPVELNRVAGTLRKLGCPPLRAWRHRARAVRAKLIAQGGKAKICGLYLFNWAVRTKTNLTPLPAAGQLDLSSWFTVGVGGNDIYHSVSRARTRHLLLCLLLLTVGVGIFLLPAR

With “(1aR,5S,8S,9S,10R,22aR)-5-tert-butyl-N-[(1R,2R)-2-(difluoromethyl)-1-{[(1-methylcyclopropyl)sulfonyl]carbamoyl}cyclopropyl]-8-fluoro-14-methoxy-9-methyl-3,6-dioxo-1,1a,3,4,5,6,9,10,18,19,20,21,22,22a-tetradecahydro-8H-7,10-methanocyclopropa[18,19][1,10,3,6]dioxadiazacyclononadecino[1,12-b]quinoxaline-8-carboxamide [Example 47]”, the inhibitory constant (Ki) in [1] was determined as 0.07 nM; in assay [2] it was 0.19 nM. In addition, the concentration for a half-maximal effect (EC50) was determined as 3.8 nM in [3]; 3.6 nM in assay [4]; 12 nM in assay [5]; 58 nM in [6] (setting [13]); 4.2 nM in [7] (setting [14]); 17 nM in assay [8]. Further, the EC50 in assay [9] was determined as 5.4 nM; in assay [10] (setting [15]), 6.1 nM; in assay [11] it was 2 nM.

`COc1ccc2nc3c(nc2c1)O[C@H]1CN(C(=O)[C@H](C(C)(C)C)NC(=O)O[C@@H]2C[C@@H]4C[C@@H]4[C@H]2CCCCC3)[C@H](C(=O)NC2(C(=O)NS(=O)(=O)C3CC3)C[C@H]2C(F)F)[C@@H]1C` (stereo in doubt) [Example 33, (1aS,2aR,6S,9S,10S,11R,23aR,23bS)-6-tert-butyl-N-[(1 S,2R)-1-[(cyclopropylsulfonyl)carbamoyl]-2-(difluoromethyl)cyclopropyl]-15-methoxy-10-methyl-4,7-dioxo-1a,2,2a,4,5,6,7,10,11,19,20,21,22,23,23a,23b-hexadecahydro-1H,9H-8,11-methanocyclopropa[4′,5′]cyclopenta[1′,2′:18,19][1,10,3,6]dioxadiazacyclononadecino[11,12-b]quinoxaline-9-carboxamide]: the Ki in [1] was 0.03 nM; in assay [2], 0.06 nM. Besides, the 50% effective concentration (EC50) in assay [3] (Hepatitis C virus) worked out at 7.6 nM; in [4] (Hepatitis C virus) it was 2.8 nM; in [5] (Hepatitis C virus), 4.9 nM; in assay [6] (Hepatitis C virus) it was 16 nM; in [7] (Hepatitis C virus) it was 2.3 nM; in assay [8] (Hepatitis C virus), 5.3 nM. The EC50 in assay [9] (Hepatitis C virus) was determined as 2.6 nM; in assay [10] (setting [16]) it was 2.5 nM; in [11] (Hepatitis C virus) it was 1.6 nM; in assay [12] (setting [17]), 4.2 nM.

Take `CC[C@@H]1[C@@H]2CN(C(=O)[C@H](C(C)(C)C)NC(=O)O[C@@H]3C[C@H]3CCCCCc3nc4ccc(OCC(F)(F)F)cc4nc3O2)[C@@H]1C(=O)N[C@]1(C(=O)NS(=O)(=O)C2(C)CC2)C[C@H]1C(F)F` [Example 55, (1aR,5S,8S,9S,10R,22aR)-5-tert-butyl-N-[(1R,2R)-2-(difluoromethyl)-1-{[(1-methylcyclopropyl)sulfonyl]carbamoyl}cyclopropyl]-9-ethyl-3,6-dioxo-14-(2,2,2-trifluoroethoxy)-1,1a,3,4,5,6,9,10,18,19,20,21,22,22a-tetradecahydro-8H-7,10-methanocyclopropa[18,19][1,10,3,6]dioxadiazacyclononadecino[11,12-b]quinoxaline-8-carboxamide]: the inhibition constant (Ki) in [1] amounted to 0.09 nM; in assay [2], 0.2 nM. For the same compound, the EC50 was 13 nM in [3] (Hepatitis C virus); 3.8 nM in assay [4] (Hepatitis C virus); 12 nM in [5] (Hepatitis C virus); 140 nM in assay [6] (Hepatitis C virus); 3.5 nM in [7] (Hepatitis C virus); 71 nM in assay [8] (Hepatitis C virus). Moreover, the EC50 in assay [9] (Hepatitis C virus) amounted to 8 nM; in [10] (setting [16]), 32 nM; in [11] (Hepatitis C virus), 2.3 nM; in assay [12] (setting [17]), 53 nM.

For the compound `COc1ccc2nc3c(nc2c1)O[C@H]1CN(C(=O)[C@H](C(C)(C)C)NC(=O)O[C@@H]2C[C@H]2CCCCC3)[C@H](C(=O)N[C@]2(C(=O)NS(=O)(=O)C3(C)CC3)C[C@H]2C(F)F)[C@@H]1C1CC1` [Example 31, (1aR,5S,8S,9S,10R,22aR)-5-tert-butyl-9-cyclopropyl-N-[(1R,2R)-2-(difluoromethyl)-1-{[(1-methylcyclopropyl)sulfonyl]carbamoyl}cyclopropyl]-14-methoxy-3,6-dioxo-1,1a,3,4,5,6,9,10,18,19,20,21,22,22a-tetradecahydro-8H-7,10-methanocyclopropa[18,19][1,10,3,6]dioxadiazacyclononadecino[11,12-b]quinoxaline-8-carboxamide], the Ki in [1] was found to be 0.13 nM; in assay [2], 4.9 nM. The EC50 was 40 nM in assay [3]; 18 nM in assay [4]; 63 nM in assay [5]; 2070 nM in [6] (setting [13]); 20 nM in assay [7] (setting [14]); 27 nM in assay [9]. Further, the EC50 in [10] (setting [15]) was found to be 154 nM; in assay [11] it was 6.6 nM; in assay [12] (transient-transfected replicon genotype 1b D168A resistant variant, read-out: EC50 1B D168A), 805 nM.

Turning to `CC[C@@H]1[C@@H]2CN(C(=O)[C@H](C(C)(C)C)NC(=O)O[C@@H]3[C@H]4CC[C@H](C4)[C@H]3CCCCCc3nc4ccc(OC)cc4nc3O2)[C@@H]1C(=O)N[C@]1(C(=O)NS(=O)(=O)C2CC2)C[C@H]1C(F)F` [Example 13, (1R,4S,4aR,8S,11S,12S,13R,25aR)-8-tert-butyl-N-[(1R,2R)-1-[(cyclopropylsulfonyl)carbamoyl]-2-(difluoromethyl)cyclopropyl]-12-ethyl-17-methoxy-6,9-dioxo-2,3,4,4a,6,7,8,9,12,13,21,22,23,24,25,25a-hexadecahydro-1H,11H-1,4:10,13-dimethanoquinoxalino[2,3-k][1,10,3,6]benzodioxadiazacyclononadecine-11-carboxamide], the inhibitory constant (Ki) was determined as 0.04 nM in [1] and 0.18 nM in [2]. Besides, the half-maximal effective concentration (EC50) was 13 nM in assay [3] (Hepatitis C virus); 9.5 nM in assay [4] (Hepatitis C virus); 26 nM in assay [5] (Hepatitis C virus); 685 nM in assay [6] (Hepatitis C virus); 11 nM in assay [7] (Hepatitis C virus); 8.6 nM in assay [9] (Hepatitis C virus). Besides, the 50% effective concentration (EC50) in [10] (setting [16]) stood at 59 nM; in assay [11] (Hepatitis C virus), 3.1 nM; in assay [12] (setting [17]), 209 nM.

These data come from patent US10335409B2 (priority 2012, dated 2019).
